One series deals with φX-174 plasmid DNA. As to the kind of experiment: Photonicking of φX-174 plasmid DNA, gel electrophoresis. It counts as biochemical. The method, then:
Photolysis with φX-174 Plasmid DNA. Metal complex solutions (with or without quenchers) were saturated with oxygen or argon prior to irradiation. The solutions were further degassed after being mixed with the plasmid. The final solution concentrations were: DPPZPHEN ([…]), φX-174 plasmid DNA (205 μM in base pairs), superoxide dismutase (25 μg/mL), 2-propanol (0.5 M), mannitol (6.25 mM), histidine (8 mM).
Experiments were conducted as described in Example X to evaluate the amount photonicking that occurred in the dark and upon exposure to light for 37TMBP, 56TMBP, OCTBP, BISNMe2, TMOBP, TIOBP, TPBP, BISTAP and BISDPPZ.

The subject of another series is GN4 cells. As to the kind of experiment: Phototoxicity to GN4 tumor cells, MTT assay. It counts as cell-based, canine. The following applies: dark, zero time point. The method, then:
Photolysis with Tumor Cells.
Media was decanted from the flask. […] Trypsin-EDTA was then decanted and the flask was incubated at 37° C. for 8 minutes. […] Released cells were suspended in 5 mL of media and shaken well. […] The remaining cells were discarded.
Cells were plated, incubated with the drug, and photolysis was conducted as for the KB cell lines.

A further series has as its system SINV. The series is described as follows: Photoinactivation of SINV, virus infectivity. The series is classed as cell-based, Sindbis virus. The method, then: General. The quantity of DNA was determined by the Burton assay (Burton, Biochem. J., 62:315-322 (1956)), and its rhodium content was quantitated using flame atomic absorption spectroscopy (AA). The equilibrium constant for interaction between DPPZPHEN and CT-DNA in the dark was calculated from UV-Vis absorption titration measurements at 380 nm (Wolfe et al., Biochem., 26:6392-6396 (1987); Schemel et al., Biopolymers, 10:465-480 (1971)). Cell viability was determined using the MTT assay (Denizot et al., J. Immunol. Methods, 89:271-277 (1986)). SINV was purified on sucrose gradients as previously described (Owen et al., J. Virol., 70:2757-2763 (1996)). The titer was generally 7-8 log10 pfu/mL at the beginning of each experiment.
Photolysis with SINV. DPPZPHEN/SINV solutions were prepared by adding a 0.3 mL aliquot of a 600 μM DPPZPHEN stock solution in PBS to 3 mL of purified virus at a concentration of 7-8 log10 pfu/mL and bringing the total volume to 4 mL. The DPPZPHEN/SINV solutions were incubated for 2 hours prior to irradiation, following which 3 mL of the […] 100 μL were withdrawn over time and analyzed for virus infectivity. The inactivation rate constant was calculated using simple hit theory (Hiatt, Bacteriol. Rev., 28:150-163 (1964); Houghtaling et al., Photochem. Photobiol., 71:20-28 (2000)). For the studies measuring infectivity of genome RNA, a 6.9 μL aliquot of 0.623 M DPPZPHEN stock solution in DMSO was added to a 100 μL of TE12 wild type […] solution (10 log10 pfu/mL) to obtain a 40 mM DPPZPHEN/virus solution. Aliquots of 50 μL were placed into 250 μL inserts, incubated for 2 hours, and either kept in the dark or irradiated for 60 minutes with light >330 nm. At the completion of the experiment all the samples were diluted with 6 mL 1×PBS buffer and precipitated for 2 hours at 4° C. with 10% PEG+NaCl (200 mM). The PEG precipitated virus was centrifuged at 4° C. for 30 minutes at 14,000 rpm, and the resulting pellet re-suspended in 200 μL of 1×PBS buffer and extracted with equal volumes of phenol and chloroform. The virion RNA was precipitated with ethanol, re-suspended in 100 μL of 1×PBS, and electroporated into about 2×10^7 baby hamster kidney (BHK) cells using 0.2-cm-gap cuvettes. The electroporation utilized 200 Ohms, 1.5 kV, and 25 μF. The cells were incubated at 37° C. for 12 hours in MEM supplemented with 10% fetal calf serum and the viral supernatants were harvested and assayed for the presence of infectious virus by plaque assay.

A further series concerns SINV genomic RNA. As to the kind of experiment: Immunofluorescence assay for SINV capsid protein translated from irradiated viral RNA in BHK cells. The series is classed as cell-based, Sindbis virus. The note with it: RNA from virus irradiated with compound. The method, then: An immunofluorescence assay was also employed to detect the presence of SINV capsid protein newly translated from the irradiated viral genomic RNA. For these experiments the virus solutions had to be 10 log10 pfu/mL, which is a virus concentration 3 orders of magnitude higher than that used in the previous experiments. Also, the DPPZPHEN solutions had to be prepared in DMSO to maintain the ratio of drug to virus as in the previous experiments. […] SINV RNA from virus that had been either incubated in the dark or irradiated with DPPZPHEN was isolated and transfected into baby hamster kidney cells as described above. Following electroporation, the cells were plated on coverslips and incubated at 37° C. for 12 hours. The cells on the coverslips were then fixed with methanol for 15 minutes and washed twice with 1×PBS buffer. They were then incubated with anti-CP (SINV) polyclonal antibody (Owen et al., J. Virol., 70:2757-2763 (1996)) for 45 minutes at 37° C. After washing three times with 1×PBS buffer the cells were incubated with fluorescein-5-isothiocyanate (FITC) conjugated goat anti-rabbit secondary antibody (obtained from Kirkegaard and Perry, Gaithsburg, Md.) at 37° C. for 45 minutes. […] They were viewed under a Nikon Eclipse TE200 with a TE-FM Epi-fluorescence attachment.

The nature of series [1]: Reversed phase HPLC elution on C8 column as measure of hydrophobicity. The series is classed as physicochemical. The following applies: 45% acetonitrile in 100 mM ammonium acetate pH 5.4. The method, then:
Reversed phase high performance liquid chromatography (RP-HPLC) was carried out on C8 columns. Compounds were tested using 20%, 30% and 45% acetonitrile in 100 mM ammonium acetate at pH 5.4 for elution on a C8 column, with the intention of achieving an elution time of about 15 minutes. It was expected that the more hydrophobic a compound, the higher the acetonitrile content one would need for the eluent.

With `[Cl-].[Cl][Rh+]12([Cl])([N]3C=CC=c4ccc5c(c43)[N]1C=CC=5)[N]1C=CC=c3c1c1c(c4nc5ccccc5nc34)=CC=C[N]12` [DPPZPHEN, cis-dichloro(dipyrido[3,2a-2′3′c]phenazine)(1,10-phenantroline) rhodium(III) chloride], the “frank nicks / nicking of φX-174 supercoiled plasmid DNA upon irradiation” value in the series with φX-174 plasmid DNA (311 nm irradiation, Example VIII) was “light dose dependent”. Also, the “photonicking of φX-174 plasmid DNA” value with φX-174 plasmid DNA (Example IX, dark and upon exposure to light) is on record as “found to photonick”. Further, the “protection of the DNA from photonicking by ROS quenchers or argon” value in the series with φX-174 plasmid DNA (oxygen-saturated solutions with quenchers, and under argon, relative to buffered control) is “no significant level of protection”. For the same compound, the “cell toxicity in the absence of light” value in the series with GN4 cells is recorded as “no appreciable degree of cell toxicity”. Moreover, in the series on SINV (45 μM, 355 nm irradiation), the “inactivation rate constant k (simple hit theory)” value is listed as 2.4×10^−19 photons^−1 and the “reduction in viral titer” value turned out to be 6 log. Also, in the series with SINV (dark), the “effect of the metal complex on the virus in the dark” value is reported as “unaffected”. Also, in the series on SINV (oxygen or nitrogen), the “rate of photoinactivation under oxygen versus nitrogen” value is recorded as “the same under either oxygen or nitrogen”. Further, in the series on SINV genomic RNA, the “SINV capsid protein (CP) in transfected BHK cells” value was “CP was not observed”. Moreover, the elution time result in series [1] is reported as “about 15 minutes”.

The values above are taken from patent US20060111335A1, “Photoactivated anti-viral and anti-cancer agent” (priority 2002, published 2006).
